The results in this text go back to patent US11987586B1 (TAKEDA PHARMACEUTICAL COMPANY LIMITED, priority 2022, dated 2024).

The assay addresses T1, human OX2 receptor (Homo sapiens, UniProt O43614).
T1 construct: expressed in transfected cells
T1 sequence (O43614 1-444): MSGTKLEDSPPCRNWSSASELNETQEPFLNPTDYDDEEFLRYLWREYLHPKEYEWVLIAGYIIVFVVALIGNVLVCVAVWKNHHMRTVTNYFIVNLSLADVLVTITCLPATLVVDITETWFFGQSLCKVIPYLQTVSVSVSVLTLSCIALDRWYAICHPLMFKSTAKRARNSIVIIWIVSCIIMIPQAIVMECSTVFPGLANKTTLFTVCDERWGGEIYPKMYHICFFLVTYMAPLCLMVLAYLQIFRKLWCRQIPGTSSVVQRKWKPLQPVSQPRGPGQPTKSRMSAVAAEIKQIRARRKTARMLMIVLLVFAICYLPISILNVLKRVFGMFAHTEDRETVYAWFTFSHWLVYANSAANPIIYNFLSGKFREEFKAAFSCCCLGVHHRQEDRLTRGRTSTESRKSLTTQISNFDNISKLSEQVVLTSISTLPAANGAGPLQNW
Briefly: Measurement of orexin type 2 receptor agonist activity (calcium fluorescence, Fluo-4, FDSS). The format is cell-based. The following applies: 3 uM test compound; CHO cells expressing human OX2 receptor; DMSO = 0%, 10 nM orexin A (human) = 100%. The procedure, abridged:
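CHO-K1 cells stably expressing human OX2 receptor (residues 1-444) were loaded with Fluo-4 AM plus probenecid. Calcium fluorescence after compound addition was recorded for 1 min 40 s. Activity (%) was scaled between DMSO (0%) and 10 nM orexin A final (100%).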
Regarding `Cc1cc2onc(-n3cc4n(c3=O)CC(NS(C)(=O)=O)C(F)(F)C4)c2c(-c2c(F)cc(F)cc2F)n1` (single isomer, unassigned) [Example 289, N-{(6R*)-7,7-difluoro-2-[6-methyl-4-(2,4,6-trifluorophenyl)[1,2]oxazolo[4,5-c]pyridin-3-yl]-3-oxo-2,3,5,6,7,8-hexahydroimidazo[1,5-a]pyridin-6-yl}methanesulfonamide], the “OX2R agonist activity (3 uM, %)” value is 97%. As to `CCS(=O)(=O)N[C@H]1C[C@H]2CN(c3cnc4cccc(-c5c(F)cccc5F)n34)C(=O)N2C1` [Example 182, N-{(6S,7aS)-2-[5-(2,6-difluorophenyl)imidazo[1,2-a]pyridin-3-yl]-3-oxohexahydro-1H-pyrrolo[1,2-c]imidazol-6-yl}ethanesulfonamide], the “OX2R agonist activity (3 uM, %)” value is given as 84%. To `CCS(=O)(=O)N[C@@H]1CN2C(=O)N(c3noc4cccc(-c5c(F)cccc5F)c34)C[C@]2(C)C1` [Example 57, N-{(6S,7aS)-2-[4-(2,6-difluorophenyl)-1,2-benzoxazol-3-yl]-7a-methyl-3-oxohexahydro-1H-pyrrolo[1,2-c]imidazol-6-yl}ethanesulfonamide] belongs 88%; to `CCS(=O)(=O)N[C@H]1C[C@H]2CN(c3noc4c(Cl)ccc(-c5c(F)cccc5F)c34)C(=O)N2C1` [Example 58, N-{(6S,7aS)-2-[7-chloro-4-(2,6-difluorophenyl)-1,2-benzoxazol-3-yl]-3-oxohexahydro-1H-pyrrolo[1,2-c]imidazol-6-yl}ethanesulfonamide], 88%; to `CCS(=O)(=O)NC1Cn2c(cn(-c3noc4cccc(-c5c(F)cccc5F)c34)c2=O)CC1(F)F` (single isomer, unassigned) [Example 181, N-{(6R*)-2-[4-(2,6-difluorophenyl)-1,2-benzoxazol-3-yl]-7,7-difluoro-3-oxo-2,3,5,6,7,8-hexahydroimidazo[1,5-a]pyridin-6-yl}ethanesulfonamide], 105%.

Turning to `CS(=O)(=O)N[C@@H]1Cn2c(cn(-c3noc4cc(CO)c(F)c(-c5c(F)cc(F)cc5F)c34)c2=O)C1(F)F` [Example 185, N-{(6R)-7,7-difluoro-2-[5-fluoro-6-(hydroxymethyl)-4-(2,4,6-trifluorophenyl)-1,2-benzoxazol-3-yl]-3-oxo-2,5,6,7-tetrahydro-3H-pyrrolo[1,2-c]imidazol-6-yl}methanesulfonamide], the “OX2R agonist activity (3 uM, %)” value is 104%. To `CS(=O)(=O)N[C@@H]1CN2C(=O)N(c3noc4cccc(-c5cc(F)ccc5F)c34)CC[C@@H]2C1(F)F` [Example 292, N-{(4aR,6R)-2-[4-(2,5-difluorophenyl)-1,2-benzoxazol-3-yl]-5,5-difluoro-1-oxooctahydropyrrolo[1,2-c]pyrimidin-6-yl}methanesulfonamide] belongs 106%; to `CCS(=O)(=O)N[C@H]1C[C@H]2CN(c3noc4cc(OC)cc(-c5c(F)cccc5F)c34)C(=O)N2C1` [Example 41, N-{(6S,7aS)-2-[4-(2,6-difluorophenyl)-6-methoxy-1,2-benzoxazol-3-yl]-3-oxohexahydro-1H-pyrrolo[1,2-c]imidazol-6-yl}ethanesulfonamide], 100%.

With `CCS(=O)(=O)N[C@@H]1CN2C(=O)N(c3noc4cc(C)cc(-c5c(F)cc(F)cc5F)c34)C[C@@H]2C1(F)F` [Example 153, N-{(6R,7aR)-7,7-difluoro-2-[6-methyl-4-(2,4,6-trifluorophenyl)-1,2-benzoxazol-3-yl]-3-oxohexahydro-1H-pyrrolo[1,2-c]imidazol-6-yl}ethanesulfonamide], the “OX2R agonist activity (3 uM, %)” value was 96%. To `CS(=O)(=O)N[C@@H]1CN2C(=O)N(c3noc4cccc(-c5ccccc5Cl)c34)CC[C@@H]2C1(F)F` [Example 291, N-{(4aR,6R)-2-[4-(2-chlorophenyl)-1,2-benzoxazol-3-yl]-5,5-difluoro-1-oxooctahydropyrrolo[1,2-c]pyrimidin-6-yl}methanesulfonamide] belongs 106%.
